Test: gradient 5% acetonitrile 3 min, to 50% in 2 min, to 85% in 15 min, held 3 min, 100 µL/min
Details: column: Zorbax Extend-C18 2.1 x 50 mm; eluents: water / acetonitrile, 0.1% formic acid
Procedure, shortened: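 Retention times of pure standards were taken from adduct peaks that were selected by computer and manually inspected. Over 3 months, mixtures of ~100 molecules were run by HPLC–quadrupole time-of-flight mass spectrometry in positive and negative ionization mode. The Zorbax Extend-C18 column (2.1 × 50 mm, 1.8 μm) ran at 100 μL/min in water and acetonitrile, each containing 0.1% formic acid, with 40 μL dead volume and 900 μL dwell volume.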

| SMILES | RP-LC retention time [s] |
| --- | --- |
| Cc1[nH]c2ccccc2c1C(=O)C(c1ccccc1)N1CCN(c2ncccn2)CC1 (stereo not drawn) | 682 |
| COc1ccc(OCC(=O)N2CCN(c3cc(=O)n(C)c(=O)n3C)CC2)cc1 | 655 |
| O=C(C1CCC1)N1[C@H]2CC[C@@H]1c1cnc(-c3ccc(F)cc3)nc1C2 | 955 |
| CCCn1cnc2ccc(-c3noc(CNC(=O)c4cccs4)n3)cc21 | 652 |
| CCCNC(=O)C1CCCN1S(=O)(=O)c1cc(C(=O)OCC)n(C)c1 (stereo not drawn) | 762 |
| Cc1ccc(-c2noc(CN3N=NC4C(=O)N(c5cccc(F)c5)C(=O)C43)n2)cc1C (stereo not drawn) | 897 |
| O=C([C@@H]1C[C@H](F)CN1C(=O)Nc1ccc(F)cc1)N1CCOCC1 | 608 |
| Cc1cccc(Cn2cccc2-c2nc(-c3ccc4c(c3)OCO4)no2)c1 | 1360 |
| COc1ccccc1-c1nc(Cn2nnc(-c3nc(-c4ccc(F)cc4)no3)c2C)c(C)o1 | 1160 |
| Cc1ccc(NC(=O)Cn2c(NCCN3CCOCC3)nc3ccccc32)cc1 | 556 |
| Cc1ccc2[nH]cc(CCN3CC(C(=O)NCCN4CCOCC4)CC3=O)c2c1 (stereo not drawn) | 602 |
| COc1ccc(NC(=O)C2c3ccccc3C(=O)N3CCC(C)CC23)c(OC)c1 (stereo not drawn) | 867 |
| COCCNC(=O)Cn1nc(C)c2sc(-c3ccccc3)nc2c1=O | 682 |
| Cc1ccc(-c2nc(-c3ccc(-c4noc(CNC(=O)Cc5ccccc5)n4)cc3)cs2)s1 | 1200 |
| Cc1ccc(S(=O)(=O)NC2CCN(C(=O)C3CCC3)CC2)cc1 | 761 |
| O=C(Cn1nc2c(Oc3cccc(F)c3)nccn2c1=O)Nc1ccc(F)cc1 | 849 |
| Cc1c(Cl)cccc1NC(=O)C1CCN(S(=O)(=O)c2ccc3c(c2)NC(=O)C(C)O3)CC1 (stereo not drawn) | 858 |
| Cc1noc([C@@H]2CN(CCCc3ccccc3)C[C@H]2CO)n1 | 612 |
| O=C(NCCn1nc(-n2cccn2)ccc1=O)c1cc2ccccc2o1 | 669 |
| CC(C)c1cc(C2CCCN2C(=O)c2cccs2)no1 (stereo not drawn) | 862 |
| COc1ccc(-c2cnn3c(C)cc(C)nc23)cc1S(=O)(=O)NCCN1CCCC(C)C1 (stereo not drawn) | 657 |
| COC(=O)c1cccc(NC(=O)CSc2nccc(N3CCN(c4cccc(OC)c4)CC3)n2)c1 | 743 |

| SMILES | RP-LC retention time [s] |
| --- | --- |
| Cc1ccc2c(Nc3ccc(S(N)(=O)=O)cc3)c(C(=O)N3CCCCCC3)cnc2n1 | 595 |
| CSc1ccc(CNC(=O)Cn2cc(-c3nnc(C)o3)c3ccccc32)cc1 | 812 |
| CCC(=O)Nc1nnc(SCc2nnc(-c3ccccc3)o2)s1 | 739 |
| CC(C)n1c(=O)oc2cc(-c3noc(CNC(=O)Cc4ccccc4)n3)ccc21 | 842 |
| CCOc1ccc(NC(=O)Cn2c(=O)c(CCC(=O)NC3CCCC3)nc3ccccc32)cc1 | 860 |
| CCNC(=O)C1CCCN(c2nc3ncn(CC(=O)Nc4ccc(Cl)cc4F)c(=O)c3s2)C1 (stereo not drawn) | 709 |
| CN(C)C(=O)COC(=O)Cc1ccc(OC(=O)c2ccc(N=C(N)N)cc2)cc1 | 651 |
| Cc1ccc(/C=C2\CNC/C(=C\c3ccc(C)cc3)C2=O)cc1 | 734 |
| Cn1nccc1-c1cccc(-c2noc(-c3ccc(CS(=O)(=O)c4ccccc4)cc3)n2)c1 | 1080 |
| COc1cc(OC)c(NC(=O)NCCCn2c(C(F)(F)F)nc3cccnc32)cc1Cl | 836 |
| CCOC(=O)c1c(C)oc2ncnc(NCCc3c[nH]c4ccccc34)c12 | 1050 |
| CCc1nnc2ccc(-c3noc(-c4ccc(Cl)cc4)n3)cn12 | 1050 |
| Cc1ccc(N2CCC(NC(=O)CC(C)C)C2=O)cc1 (stereo not drawn) | 762 |
| O=c1n(Cc2ccccc2)nc2c(S(=O)(=O)N3CCc4ccccc4C3)cccn12 | 942 |
| Cc1oc(-c2[nH]ncc2C(=O)N(C)C)cc1S(=O)(=O)Nc1ccc(F)c(F)c1 | 890 |
| COc1ccc(C(=O)Nc2c(-c3ccc(F)cc3)nc3cc(C)ccn23)c(OC)c1 | 697 |
| COc1cccc(-n2cc(C(=O)OCc3ccccn3)c3ccccc3c2=O)c1 | 854 |
| Cc1nc(Cn2cccc2C(=O)Nc2cccc(C#N)c2)no1 | 798 |
| COc1ccccc1NC(=O)Nc1ccc2c(c1)N(S(=O)(=O)c1cccs1)CCC2 | 967 |
| O=C(NC1CCCCC1)N1CCC(c2noc(COCC3CC3)n2)CC1 | 830 |
| Clc1cccc(-c2noc(Cc3nc(-c4ccc5c(c4)OCO5)cs3)n2)c1 | 1250 |
| CCC1CN(C(=O)N2CCC(C(=O)NCCc3ccco3)CC2)c2ccccc2O1 (stereo not drawn) | 852 |

| SMILES | RP-LC retention time [s] |
| --- | --- |
| Cn1nc(C(=O)N2CCCC2)c2c1CCN(C(=O)CCC(=O)NCCc1c[nH]c3ccccc13)C2 | 685 |
| CCN(CC)CCNC(C(=O)OCCC(C)C)c1ccccc1 (stereo not drawn) | 817 |
| CCCN1C(=O)COc2ccc(-c3csc(NC(=O)c4ccc(OC)cc4)n3)cc21 | 1040 |
| Cc1nc(-c2ccc(C(=O)NC3CC3)cc2)cs1 | 706 |
| CCn1c(SCC(=O)N(C)C)nnc1-c1ccc2c(c1)OCCCO2 | 671 |
| O=C(Nc1ccc(-n2cnnn2)cc1)C1CC(=O)N(c2ccccc2)C1 (stereo not drawn) | 662 |
| Cc1cc2c(c(=O)n(-c3ccc(F)cc3)c(=O)n2CC(=O)Nc2cccc(F)c2)n1C | 840 |
| CC(=O)c1sc(NC(=O)c2ccn(C)n2)nc1C | 630 |
| C=CCN1CCc2cccc3c2[C@H]1Cc1ccc(O)c(O)c1-3 | 659 |
| O=C(NCc1cccs1)c1ccc(-n2cccn2)nn1 | 737 |
| CC1CCN(S(=O)(=O)c2ccc(-c3nnc(C(=O)NCCc4ccc(Cl)cc4)o3)cc2)CC1 | 1160 |
| CCc1ccccc1S(=O)(=O)N1CCC(c2cc(N)on2)CC1 | 824 |
| COc1cccc(NC(=O)Nc2ccc(Cl)c(N3CCCS3(=O)=O)c2)c1OC | 780 |
| COc1cc(C2=NN(C(C)=O)C(c3cccnc3)O2)cc(OC)c1OC(C)=O (stereo not drawn) | 728 |
| COc1cc(-c2nc3ccc(C)cn3c2Nc2ccccc2C)ccc1O | 661 |
| CCCCOc1ccc(C(=O)Nc2ccc(-c3cn4ccc(C)nc4n3)cc2)cc1 | 781 |
| CC(=O)c1sc(NC(=O)c2c[nH]c3ccccc3c2=O)nc1C | 615 |
| O=C(Nc1cccc(-c2ccc(N3CCCC3)nn2)c1)c1c(F)cccc1F | 647 |
| Cc1cc(C2CCCN2C(=O)Nc2cccc(C)c2C)no1 (stereo not drawn) | 774 |
| O=C(CCc1csc(NC(=O)NC2CCCCC2)n1)NCc1ccc2c(c1)OCO2 | 718 |
| CC(=O)Nc1ccc(-c2noc(C3CCCN(C(=O)Cc4ccc(Br)cc4)C3)n2)cc1 (stereo not drawn) | 872 |
| COc1ccc(-c2nnc(-c3cc(S(=O)(=O)NCc4cccs4)ccc3Cl)o2)cc1 | 1040 |

| SMILES | RP-LC retention time [s] |
| --- | --- |
| CNC(=O)C1CCCN(c2nc3ncn(CC(=O)NCc4ccc5c(c4)OCO5)c(=O)c3s2)C1 (stereo not drawn) | 618 |
| COc1ccc(NC(=O)C2CCN(S(=O)(=O)c3ccc4c(c3)sc(=O)n4C)CC2)cc1 | 817 |
| Cc1noc([C@@H]2CN(Cc3cn[nH]c3-c3ccccc3)C[C@H]2CO)n1 | 582 |
| CN1C(=O)Cc2cc(C(=O)NCc3ccccc3C(F)(F)F)ccc21 | 773 |
| CC(=O)N1CCc2sc(C(=O)NC(C)c3ccccc3)cc2C1 (stereo not drawn) | 708 |
| CS(=O)(=O)N1CCC(C(=O)Nc2ccc(Br)cc2)Oc2ccccc21 (stereo not drawn) | 980 |
| Cc1cc2c(cc1S(=O)(=O)NC1CC1)N(C(=O)C1CCC1)CC2 | 844 |
| Cc1ccc2nc(C)c(NC(=O)C3c4ccccc4Oc4ccccc43)c(=O)n2c1 | 710 |
| CCn1nccc1-c1cccc(-c2noc(-c3cccc(NC(=O)c4ccco4)c3)n2)c1 | 1080 |
| COc1ccc(C(=O)N2CCC3(CC2)N=C(c2ccc(Br)cc2)NO3)cc1OC | 820 |
| COc1ccc2c(c1)C1(CCN(C(=O)c3cccc(Cl)c3)C1)C(=O)N2C (stereo not drawn) | 831 |
| C[C@@H](NC(=O)c1ncnc(N)c1Cl)c1ncc(C(=O)Nc2cc(C(F)(F)F)c(Cl)cn2)s1 | 913 |
| Cc1cc(=O)n(CC(=O)Nc2ccc(F)cc2Cl)c(N2CCCCC2)n1 | 718 |
| CC1(C(=O)NCc2ccc(F)cc2)CCCN(C(=O)Nc2ccc(F)cc2)C1 (stereo not drawn) | 887 |
| O=C(C1=CN(c2ccccc2)c2ccccc2S1(=O)=O)N1CCCCC1 | 821 |
| CC(Oc1cccc2ccccc12)c1nc2c3ccccc3ncn2n1 (stereo not drawn) | 1090 |
| Cc1ccc2[nH]cc(CCNC(=O)CCc3ccccc3)c2c1 | 880 |
| CC1(C(=O)NCc2ccc(F)cc2)CCN(S(=O)(=O)c2ccc(C3CCCCC3)cc2)CC1 | 1210 |
| Cc1noc(-c2ccc(NC(=O)C3CC(=O)N(c4ccccc4)C3)cc2)n1 (stereo not drawn) | 727 |
| Cc1cccc(NC(=O)C2CCCN2S(=O)(=O)c2cccc3nsnc23)n1 (stereo not drawn) | 798 |
| COc1ccc(NC(=O)N2CCCC(Cn3cnc4cccnc43)C2)cc1OC (stereo not drawn) | 620 |
| CCc1nc2c(c(=O)n1CC(=O)NC(C)(C)C)CN(Cc1ccccc1)CC2 | 605 |

Reference: the METLIN SMRT retention time set (Domingo-Almenara et al. 2019)
